The values that follow come from patent publication US20220313621A1, “FORMULATIONS OF CANNABINOIDS FOR THE TREATMENT OF PSORIASIS” (priority 2017, published 2022).

The nature of data set [1]: Discoloration of CBD solutions. In kind it is physicochemical. Conditions: end of day 1. From the text: The CBD2 material dissolved like the CBD1 therefore the CBD2 is CBD without the discoloration properties of CBD1.
Data set [2] is described as follows: Solubility of CBD in solvents and excipients. It counts as physicochemical. As to the method:
First, the solubility of cannabidiol (CBD) was assessed. The powder looked granulated under the microscope. […] The conclusions from the solubility studies were that OA and IPA were very good solvents and it was surprising that IPA was so much better than ethanol.
Solubility studies: CBD dissolved at the 10% level in AE and barely 9.5% in IPM. Further exploration was not conducted due to the small amount of drug API available for non-GMP work. CBD is soluble greater than 10% but probably not in excess of 20%, as the time to dissolve additional CBD was taking considerably longer.

For data set [3], the target named is T1, human vanilloid receptor type 1 (VR1) (Homo sapiens, UniProt Q8NER1).
T1 construct: expressed in transfected cells; host or cells: HEK cells transfected with hVR1 (HEK-hVR1)
Conditions: HEK-hVR1 transfected cells; cited from earlier work.

Data set [4] can be described thus: Solubility of CBD in the Receptor Fluid. In kind it is physicochemical. Particulars: not told, aqueous with cosolvent or surfactant or cyclodextrin; PBS with 0.01 wt % NaN3, 4 wt % hydroxypropyl-cyclodextrin, 1 wt % Brij O20.
The test system of another data set is anandamide. Conditions: rat basophilic leukemia cells; cited from earlier work.
The next data set deals with rats. Particulars: 5 mg/kg, i.v., once daily for 4 weeks; cited from earlier work.
The test system of another data set is sensitized guinea-pigs. Conditions: 1 mg/kg i.v.; cited from earlier work.
For data set [5] the following is noted: in ethanol; cited from earlier work.

Molecules are shown by their SMILES.

T1 sequence (Q8NER1 whole entry): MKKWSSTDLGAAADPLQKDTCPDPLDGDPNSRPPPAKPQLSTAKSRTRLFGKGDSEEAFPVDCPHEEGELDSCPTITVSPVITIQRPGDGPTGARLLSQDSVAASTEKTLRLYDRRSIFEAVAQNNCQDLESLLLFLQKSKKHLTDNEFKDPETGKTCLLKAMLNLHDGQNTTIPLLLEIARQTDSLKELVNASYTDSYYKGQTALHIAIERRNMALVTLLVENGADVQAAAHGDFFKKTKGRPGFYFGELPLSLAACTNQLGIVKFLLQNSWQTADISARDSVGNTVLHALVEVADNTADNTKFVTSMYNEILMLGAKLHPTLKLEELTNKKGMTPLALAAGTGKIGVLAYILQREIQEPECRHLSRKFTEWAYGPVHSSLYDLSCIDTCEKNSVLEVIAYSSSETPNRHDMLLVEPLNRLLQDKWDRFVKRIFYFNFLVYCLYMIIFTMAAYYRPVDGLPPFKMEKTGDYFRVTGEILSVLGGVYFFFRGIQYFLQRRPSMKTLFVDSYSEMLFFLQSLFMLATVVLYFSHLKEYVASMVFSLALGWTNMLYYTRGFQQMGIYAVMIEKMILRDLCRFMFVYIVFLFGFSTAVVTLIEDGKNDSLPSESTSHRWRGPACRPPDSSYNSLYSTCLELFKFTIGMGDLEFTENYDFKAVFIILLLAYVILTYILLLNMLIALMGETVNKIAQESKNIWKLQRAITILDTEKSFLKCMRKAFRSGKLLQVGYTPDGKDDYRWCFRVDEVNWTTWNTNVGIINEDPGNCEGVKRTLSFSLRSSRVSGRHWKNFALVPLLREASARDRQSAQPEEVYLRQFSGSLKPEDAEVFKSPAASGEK

Take `C=C(C)[C@@H]1CCC(C)=C[C@H]1c1c(O)cc(CCCCC)cc1O` [CBD1]: in data set [1], the discoloration of solution result was “coloured by the end of the day”.

Regarding `C=C(C)[C@@H]1CCC(C)=C[C@H]1c1c(O)cc(CCCCC)cc1O` [CBD2], in data set [1], the discoloration of solution entry is “None of the CBD2 solutions were coloured at the end of day 1”.

Consider `C=C(C)C1CCC(C)=CC1c1c(O)cc(CCCCC)cc1O` (stereo not drawn) [CBD, 2-[3-methyl-6-(1-methylethenyl)-2-cyclohexen-1-yl]-5-pentyl-1,3-benzenediol], for which the “solubility (weight to weight)” value is on record as 6-7% in data set [2] (in ethanol); 3-4% in data set [2] (in hexamethyldisiloxane (HDS)); “greater than 14%” in data set [2] (in isopropyl alcohol (IPA)); 3-4% in data set [2] (in mineral oil); “greater than 8%” in data set [2] (in oleyl alcohol (OA)); 6-7% in data set [2] (in propylene glycol (PG)). Moreover, the solubility is around 9.5% in data set [2] (in isopropyl myristate (IPM)) and above 50 µg/mL in data set [4]. For the same compound, the “stimulation of human vanilloid receptor type 1 (VR1)” value in data set [3] is given as “maximum effect similar in efficacy to that of capsaicin”. Moreover, the inhibition of anandamide entry in the data set on anandamide is “inhibit anandamide”. Moreover, the “cardiac inflammation produced by doxorubicin” value in the data set with rats is “attenuated cardiac inflammation produced by doxorubicin”. The ovalbumin-induced airway obstruction entry with sensitized guinea-pigs is given as “attenuated ovalbumin-induced airway obstruction”. In addition, in data set [5], the reported solubility is recorded as 3.5%.
